In this experiment the test system is Mycoplasma hyorhinis ATCC 17981. Briefly: Mycoplasma inhibitory activity, broth dilution assay (MIC). It counts as cell-based. The following applies: ATCC17981, 168 h, PPLO liquid medium, 7 days, 37° C., 5% CO2, lowest concentration at which bacteria did not grow, read-out: MIC (minimum inhibitory concentration). As to the method: For compounds 1 to 3, the inhibitory activity against Mycoplasma hyorhinis was evaluated using a broth dilution assay. Briefly, an experimental strain Mycoplasma hyorhinis ATCC 17981 was cultured in a PPLO liquid medium at 37° C. in a 5% CO2 incubator. […] 100 μL of the culture medium, which made with the strain suspension at approximately 2×10^4 CFU/mL, was added to each well of a 96-well plate. The plates were incubated for 7 days in a 37° C., 5% CO2 incubator. As the bacteria grew, the medium turned yellow. […] BioMycoX® (CellSafe, Korea) was used as a positive control.
In general terms: In broth dilution the organism is exposed to a series of concentrations in liquid medium.

Our source for the MIC values is patent US20240317800A1, “NOVEL COMPOUNDS AND ANTIBACTERIAL COMPOSITION COMPRISING THE SAME” (KOREA INSTITUTE OF OCEAN SCIENCE & TECHNOLOGY, priority 2022, published 2024).

Values after ≈ are worked out from the molar mass of the structure shown.

Consider `CCC(C)CCCCCCCC[C@@H]1CC(=O)N[C@@H](CCC(=O)O)C(=O)N[C@@H](CC(C)C)C(=O)N[C@H](CC(C)C)C(=O)N[C@@H](CC(C)C)C(=O)O1` (stereo partly drawn) [Compound 2, Bacilotetrin D], for which the MIC worked out at 31 µg/mL (≈ 43.7 µM). Next, `CC(C)CCCCCCCCC[C@@H]1CC(=O)N[C@@H](CCC(=O)O)C(=O)N[C@@H](CC(C)C)C(=O)N[C@H](CC(C)C)C(=O)N[C@@H](CC(C)C)C(=O)O1` [Compound 3, Bacilotetrin E]: 31 µg/mL (≈ 43.7 µM). Next, `CCCCCCCCCCC[C@@H]1CC(=O)N[C@@H](CCC(=O)O)C(=O)N[C@@H](CC(C)C)C(=O)N[C@H](CC(C)C)C(=O)N[C@@H](CC(C)C)C(=O)O1` [Compound 1, Bacilotetrin C]: 31 µg/mL (≈ 44.6 µM).
